Like-named read-outs stand apart in the source and are kept apart here.
Columns and labels:
[1] = molecular target: BCL6 BTB domain (Homo sapiens (Human), UniProt P41182); assay: Surface plasmon resonance (SPR) assay; assay type: binding; details: BCL6 BTB domain captured on SA chip, single cycle kinetics
[2] = test system: BCL6 reporter construct (3xBCL6-TK-Luc) in SuDHL4 cells; assay: Cell-based luciferase assay
Summary of the method: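 SuDHL4 cells stably carrying a 3×BCL6-site TK-promoter firefly luciferase reporter, seeded at 15,000 cells/well, were dosed over a 10-point range (top 10 uM) and grown two days at 37 °C, 5% CO2. Luminescence then read after adding neolite reagent at room temperature.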

[3] = test system: Karpas422 cells; assay: Tumor cell growth inhibition assay; assay type: cell-based
Summary of the method: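 Growth inhibition was measured by ATPlite luminescence after six days of culture at 37° C. in 5% CO2. Karpas422 cells were seeded at 2,000 per well in Alpha-MEM plus 10% FBS. Compounds were given as a 10-point concentration series with a highest dose of 5 uM.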

[4] = Homo sapiens, SU-DHL-4, 48 h, read-out: Luciferase-Assay EC50, uM), SuDHL4-3xBCL6-TK-Luc cells, two days, high dose 10 uM
[5] = Homo sapiens, KARPAS-422, 144 h, read-out: Tumor Growth Inhibition in Karpas-422 (IC50, uM), Karpas422 cells, six days, ATPlite

| Compound | Kd [1] [nM] | EC50 [2, 4] [µM] | IC50 [3, 5] [µM] | EC50 ([2]; read-out: Luciferase-Assay EC50, SuDHL4-3xBCL6-TK-Luc cells, two days, high dose 10 uM) [µM] | IC50 ([3]; read-out: Tumor Growth Inhibition in Karpas-422 (IC50), Karpas422 cells, six days, ATPlite) [µM] |
| --- | --- | --- | --- | --- | --- |
| C[C@@H]1CN(CCN(C)c2cc(NC(=O)Cn3cc(-c4cc(Cl)c(O)c(C(N)=O)c4)c4c(=O)n(C)cnc43)c(Cl)cn2)C[C@H](C)O1 [Compound I-73] | 19 | 0.233 | 0.165 | – | – |
| Cn1cnc2c(c(-c3cc(Cl)c(O)c(C(N)=O)c3)cn2CC(=O)Nc2cc(F)nc(F)c2F)c1=O [Compound I-208] | 567 | 5.15 | 1.2 | – | – |
| Cn1cnc2c(c(-c3cc(C(N)=O)c(O)c(F)c3F)cn2CC(=O)Nc2cc(N3CCC3)nc(F)c2Cl)c1=O [Compound I-488] | 71.6 | 1.28 | 0.417 | – | – |
| Cn1cnc2c(c(-c3cc(Cl)c(O)c(C(N)=O)c3)cn2CC(=O)Nc2cc3nccn3cc2Cl)c1=O [Compound I-174] | 2950 | 10 | 10 | – | – |
| Cn1cnc2c(c(-c3cc(Cl)c(O)c(C(N)=O)c3)cn2CC(=O)Nc2cc(N3CC4CC4C3)ncc2Cl)c1=O (stereo not drawn) [Compound I-155] | 32.6 | 0.923 | 1.55 | – | – |
| CO[C@@H]1CCN(c2cc(NC(=O)Cn3cc(-c4cc(C(N)=O)c(O)c(F)c4F)c4c(=O)n(C)cnc43)c(Cl)cn2)C1 [Compound I-354] | 54.8 | 1.02 | 1.27 | – | – |
| C[C@H]1CN(CC2CC2)CCN1c1cc(NC(=O)Cn2cc(-c3cc(Cl)c(O)c(C(N)=O)c3)c3c(=O)n(C)c(C(F)(F)F)nc32)c(Cl)cn1 [Compound I-343] | 180 | 0.641 | 0.383 | – | – |
| Cc1nc2c(c(-c3cc(C(N)=O)c(O)c(F)c3F)cn2CC(=O)Nc2cc(N3CCOC[C@@H]3C)ncc2Cl)c(=O)n1C [Compound I-249] | 77.3 | 0.689 | 0.736 | – | – |
| C[C@H]1COCCN1c1cc(NC(=O)Cn2cc(-c3cc(Cl)c(O)c(C(N)=O)c3)c3c(=O)n(C)cnc32)c(F)cn1 [Compound I-241] | 19.5 | 0.483 | 0.281 | – | – |
| Cn1cnc2c(c(-c3cc(Cl)c(O)c(C(N)=O)c3)cn2CC(=O)Nc2cc(N3CCOCC34CCC4)ncc2Cl)c1=O [Compound I-245] | 20.4 | 0.245 | 0.182 | – | – |
| C[C@H]1COCCN1c1cc(NC(=O)Cn2cc(-c3cc(C(N)=O)c(O)cc3F)c3c(=O)n(C)cnc32)c(Cl)cn1 [Compound I-161] | 115 | 0.971 | 1.29 | – | – |
| C[C@H]1COCCN1c1cc(NC(=O)Cn2cc(-c3cc(Cl)c(O)c(C(N)=O)c3)c3c(=O)n(CC#Cc4cnn(C)c4)cnc32)c(Cl)cn1 [Compound I-82] | 6 | 0.133 | 0.034 | – | – |
| Cn1cnc2c(c(-c3cc(Cl)c(O)c(C(N)=O)c3)cn2CC(=O)NC2CCCCC2F)c1=O (stereo not drawn) [Compound I-246] | 1320 | 10 | 10 | – | – |
| Cn1cnc2c(c(-c3cc(Cl)c(O)c(C(N)=O)c3)cn2CC(=O)Nc2cc(N3CCC4(CCOCC4)CC3)ncc2Cl)c1=O [Compound I-77] | 27 | 0.279 | 0.115 | – | – |
| CCN1CCN(c2cc(NC(=O)Cn3cc(-c4cc(C(N)=O)c(O)c(F)c4F)c4c(=O)n(C)cnc43)c(Cl)c(F)n2)[C@@H](C)C1 [Compound I-426] | 17.7 | 0.226 | 0.128 | – | – |
| Cn1cnc2c(c(-c3cc(C(N)=O)c(O)c(Cl)c3F)cn2CC(=O)Nc2cc(N3CCOCC3)ncc2Cl)c1=O [Compound I-169] | 206 | 1.96 | 1.89 | – | – |
| Cn1cnc2c(c(-c3cc(Cl)c(O)c(C(N)=O)c3)cn2CC(=O)NC2CCCCC2)c1=O [Compound I-211] | 1210 | 10 | 10 | – | – |
| Cn1cnc2c(c(-c3cc(F)c(O)c(C(N)=O)c3)cn2CC(=O)Nc2cc(N3CCCC3)nc(F)c2Cl)c1=O [Compound I-419] | 5.85 | 0.348 | 0.22 | – | – |
| C=Cc1cc(NC(=O)Cn2cc(-c3cc(Cl)c(O)c(C(N)=O)c3)c3c(=O)n(C)cnc32)c(Cl)cn1 [Compound I-209] | 51 | 0.296 | 0.343 | – | – |
| C[C@H]1COCCN1c1cc(NC(=O)Cn2cc(-c3cc(Cl)c(O)c(C(N)=O)c3)c3c(=O)n(C)ccc32)c(Cl)cn1 [Compound I-138] | 178 | 1.74 | 1.72 | – | – |
| C[C@@H]1CN(c2cc(NC(=O)Cn3cc(-c4cc(C(N)=O)c(O)c(F)c4F)c4c(=O)n(C)cnc43)c(Cl)cn2)C[C@H](C)N1 [Compound I-225] | 115 | 20.5 | 4.34 | – | – |

| Compound | Kd [1] [nM] | EC50 [2, 4] [µM] | IC50 [3, 5] [µM] | EC50 ([2]; read-out: Luciferase-Assay EC50, SuDHL4-3xBCL6-TK-Luc cells, two days, high dose 10 uM) [µM] | IC50 ([3]; read-out: Tumor Growth Inhibition in Karpas-422 (IC50), Karpas422 cells, six days, ATPlite) [µM] |
| --- | --- | --- | --- | --- | --- |
| Cn1cnc2c(c(-c3cc(Cl)c(O)c(C(N)=O)c3)cn2CC(=O)Nc2c(F)c(F)nc(F)c2Cl)c1=O [Compound I-210] | 1100 | 14.9 | 6.16 | – | – |
| CC[C@H]1CN(c2cc(NC(=O)Cn3cc(-c4cc(Cl)c(O)c(C(N)=O)c4)c4c(=O)n(C)cnc43)c(Cl)cn2)CCO1 [Compound I-203] | 30.6 | 0.222 | 0.187 | – | – |
| CN(C)c1cc(NC(=O)Cn2cc(-c3cc(Cl)c(O)c(C(N)=O)c3)c3c(=O)n(C)c(NCC4CC4)nc32)c(Cl)cn1 [Compound I-130] | 80 | 1.03 | 0.775 | – | – |
| CN(C1CCC(c2cc(NC(=O)Cn3cc(-c4cc(Cl)c(O)c(C(N)=O)c4)c4c(=O)n(C)cnc43)c(Cl)cn2)C1)S(C)(=O)=O (stereo not drawn) [Compound I-149] | 16.3 | – | – | 0.725 | 0.617 |
| CO[C@@H]1CN(c2cc(NC(=O)Cn3cc(-c4cc(Cl)c(O)c(C(N)=O)c4)c4c(=O)n(C)c(C)nc43)c(Cl)c(F)n2)C[C@@H]1F [Compound I-399] | 30.7 | 0.268 | 0.535 | – | – |
| C=C(C)c1nc2c(c(-c3cc(Cl)c(O)c(C(N)=O)c3)cn2CC(=O)Nc2cc(N3CCN(C)C[C@@H]3C)ncc2Cl)c(=O)n1C [Compound I-322] | 34 | 3.09 | 1.19 | – | – |
| CC(C)CN1CCN(c2cc(NC(=O)Cn3cc(-c4cc(C(N)=O)c(O)c(F)c4F)c4c(=O)n(C)cnc43)c(Cl)c(F)n2)[C@@H](C)C1 [Compound I-458] | 55.8 | 0.963 | 3.68 | – | – |
| CN1CCC2CN(c3cc(NC(=O)Cn4cc(-c5cc(F)c(O)c(C(N)=O)c5)c5c(=O)n(C)cnc54)c(Cl)cn3)CC21 (stereo not drawn) [Compound I-276] | 33.1 | 1.1 | 0.355 | – | – |
| Cn1cnc2c(c(-c3cc(Cl)c(O)c(C(N)=O)c3)cn2CC(=O)Nc2cc(N3CCN4C(=O)OCC4C3)ncc2Cl)c1=O (stereo not drawn) [Compound I-237] | 17.6 | 1.04 | 1.25 | – | – |
| C[C@H]1COCCN1c1cc(NC(=O)Cn2cc(-c3cc(Cl)c(O)c(C(N)=O)c3)c3c(=O)[nH]c(Cl)nc32)c(Cl)cn1 [Compound I-294] | 9.95 | 1.43 | 1.88 | – | – |
| Cn1cnc2c(c(-c3cc(Cl)c(O)c(C(N)=O)c3)cn2CC(=O)Nc2cc(N3C4CCC3COC4)ncc2Cl)c1=O [Compound I-279] | 10.2 | 0.468 | 0.197 | – | – |
| Cc1cc(-c2cn(CC(=O)Nc3cc(N4CCOC[C@@H]4C)ncc3Cl)c3ccn(C)c(=O)c23)cc(C(N)=O)c1O [Compound I-139] | 3270 | 8.35 | > 10 | – | – |
| CC(C1CC1)N1CCN(c2cc(NC(=O)Cn3cc(-c4cc(Cl)c(O)c(C(N)=O)c4)c4c(=O)n(C)cnc43)c(Cl)cn2)[C@@H](C)C1 (stereo partly drawn) [Compound I-392] | 15.5 | 0.178 | 0.072 | – | – |
| Cc1nc2c(c(-c3cc(Cl)c(O)c(C(N)=O)c3)cn2CC(=O)Nc2cc(N3C[C@@H](C)O[C@@H](C)C3)ncc2Cl)c(=O)[nH]1 [Compound I-85] | 11 | 0.076 | 0.064 | – | – |
| C[C@H]1CN(C2COC2)CCN1c1cc(NC(=O)Cn2cc(-c3cc(Cl)c(O)c(C(N)=O)c3)c3c(=O)n(C)cnc32)c(Cl)cn1 [Compound I-345] | 6.15 | 0.0927 | 0.166 | – | – |
| Cc1nc2c(c(-c3cc(Cl)c(O)c(C(N)=O)c3)cn2CC(=O)Nc2cc(N3CCN(C4COC4)C[C@@H]3C)nc(F)c2Cl)c(=O)n1C [Compound I-434] | 5.45 | 0.0381 | 0.05 | – | – |
| Cc1cc(-c2cn(CC(=O)Nc3cc(N4CCOCC4)ncc3Cl)c3ccn(C)c(=O)c23)cc(C(N)=O)c1O [Compound I-142] | 2200 | 4.02 | > 10 | – | – |
| C[C@H]1COCCN1c1cc(NC(=O)Cn2cc(-c3cc(F)c(O)c(C(N)=O)c3)c3c(=O)n(C)ccc32)c(Cl)cn1 [Compound I-137] | 66 | 1.34 | 1.74 | – | – |
| Cc1nc2c(c(-c3cc(Cl)c(O)c(C(N)=O)c3)cn2CC(=O)Nc2cc(N3CCN(C(C)C)C[C@@H]3C)ncc2Cl)c(=O)n1C [Compound I-272] | 14.8 | 0.133 | 0.145 | – | – |
| C[C@H]1COCCN1c1cc(NC(=O)Cn2cc(-c3cc(F)c(O)c(C(N)=O)c3)c3c(=O)n(C)cnc32)c(Cl)c(F)n1 [Compound I-319] | 3.96 | 0.104 | 0.0994 | – | – |
| C[C@H]1CN(CC2(C#N)CC2)CCN1c1cc(NC(=O)Cn2cc(-c3cc(C(N)=O)c(O)c(F)c3F)c3c(=O)n(C)cnc32)c(Cl)cn1 [Compound I-407] | 23.6 | 0.783 | 0.377 | – | – |
